According to patent US20040005623A1, “Method of determining tumor sensitivities to therapeutic drugs” (priority 2002, published 2004):

Key:
[1] = test system: HMC1 line; conditions: at 1 μM; cited from earlier work
[2] = biological target: T1, KIT Val560Gly juxtamembrane regulatory type mutant (Homo sapiens, UniProt P10721, V560G); assay: SCF-independent constitutive phosphorylation of Val560Gly mutant KIT expressed in COS cells; format: cell-based; conditions: inhibitor at 0.1 to 1 μM, FIG. 1 lanes 6-7
T1 construct: expressed in transfected cells; host or cells: COS cells
Text: (§1) Two subclones of the human mast cell leukemia line HMC1 were used to determine if the wild type and mutant KIT enzymes were able to interact with 2 drug compounds, […] and SU9529. Set forth as SEQ ID NO:1 is a nucleotide sequence for the wild type KIT enzyme (amino acid sequence is set forth as SEQ ID NO:2). One subclone, HMC1.1, expressed a valine to glycine substitution in codon 560 (Val560Gly) of the KIT intracellular juxtamembrane region. The other, HMC1.2, expressed the Val560Gly mutation and a second substitution, aspartate to valine in codon 816 (Asp816Val) in the kinase enzymatic pocket. […] For additional study of wild type and specific mutant forms of KIT, COS cells were used for transient expression of human wild-type and mutated c-KIT complementary DNAs, as described previously by Ma et al., “Inhibition of spontaneous receptor phosphorylation by residues in putatitive α-helix in the KIT intracellular juxtamembrane region,” J. Biol. Chem., 274:13399-13402 (1999). ST1571 is a commercially available drug manufactured by Novartis and developed as an inhibitor of the c-abl gene product. ST1571 has been reported to inhibit wild-type KIT and KIT expressed by HMC1. The other compound, SU9529, is manufactured by SUGEN and has not yet been made commercially available, although it has been published. […]

[3] = biological target: KIT expressed by HMC1 (Homo sapiens, UniProt P10721, V560G); conditions: has been reported; cited from earlier work
[4] = biological target: T2, wild-type KIT (Homo sapiens, UniProt P10721); conditions: has been reported; cited from earlier work
Target sequence in this assay (P10721 26-976, species assumed): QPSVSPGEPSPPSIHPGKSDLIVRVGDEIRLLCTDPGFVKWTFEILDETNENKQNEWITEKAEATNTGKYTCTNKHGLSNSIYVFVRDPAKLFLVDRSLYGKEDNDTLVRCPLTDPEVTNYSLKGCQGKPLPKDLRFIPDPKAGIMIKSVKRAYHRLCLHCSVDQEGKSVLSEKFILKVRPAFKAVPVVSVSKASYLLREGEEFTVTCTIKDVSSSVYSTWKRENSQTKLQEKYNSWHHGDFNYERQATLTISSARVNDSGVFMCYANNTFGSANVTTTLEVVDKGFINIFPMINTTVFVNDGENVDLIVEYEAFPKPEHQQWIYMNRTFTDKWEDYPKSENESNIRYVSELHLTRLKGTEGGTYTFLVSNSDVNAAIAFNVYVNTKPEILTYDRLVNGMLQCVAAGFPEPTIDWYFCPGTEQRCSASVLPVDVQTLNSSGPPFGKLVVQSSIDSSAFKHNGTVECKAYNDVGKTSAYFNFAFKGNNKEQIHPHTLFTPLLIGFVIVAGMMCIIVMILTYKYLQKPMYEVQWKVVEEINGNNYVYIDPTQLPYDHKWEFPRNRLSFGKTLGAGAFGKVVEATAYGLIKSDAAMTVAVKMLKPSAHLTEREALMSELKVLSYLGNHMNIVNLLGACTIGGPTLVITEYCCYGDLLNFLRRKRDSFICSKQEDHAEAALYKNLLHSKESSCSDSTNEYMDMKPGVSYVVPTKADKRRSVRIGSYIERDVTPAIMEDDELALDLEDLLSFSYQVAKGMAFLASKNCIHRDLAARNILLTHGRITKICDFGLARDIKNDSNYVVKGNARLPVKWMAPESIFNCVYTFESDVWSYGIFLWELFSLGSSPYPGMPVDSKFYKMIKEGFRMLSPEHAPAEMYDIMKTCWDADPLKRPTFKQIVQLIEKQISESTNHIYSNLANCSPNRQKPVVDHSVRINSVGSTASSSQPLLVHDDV

[5] = biological target: T2, wild-type KIT; assay: SCF-induced phosphorylation of wild-type KIT transiently expressed in COS cells (antiphosphotyrosine blot); format: cell-based; set-up: expressed in transfected cells; host or cells: COS cells; conditions: inhibitor at 0.1 to 1 μM, 1 hour, FIG. 1 lanes 3-4
Text: as §1
Target sequence in this assay (P10721 26-976): as the sequence (P10721 26-976, species assumed) above

Sequence of KIT expressed by HMC1 (P10721 26-976 V560G): as the sequence (P10721 26-976, species assumed) above, with V535G counted along it
T1 sequence (P10721 26-976 V560G): as the sequence (P10721 26-976, species assumed) above, with V535G counted along it

Structure (SMILES): Cc1ccc(NC(=O)c2ccc(CN3CCN(C)CC3)cc2)cc1Nc1nccc(-c2cccnc2)n1 [ST1571]
- previously reported ability to kill an HMC1 line [1]: kill
- inhibition of SCF-independent constitutive phosphorylation of Val560Gly KIT [2]: inhibit
- reported inhibition of KIT expressed by HMC1 [3]: inhibit
- reported inhibition of wild-type KIT [4]: inhibit
- inhibition of SCF-induced phosphorylation of wild-type KIT [5]: prevent the phosphorylation
